Measurements as given in PubChem BioAssay AID328 (DTP/NCI, 2004).
Values joined by “and” are separate entries in the source; they are usually repeats but may differ in a detail not shown here. Equal entries are not always repeated. Inconclusive results and toxic doses are left out.

Test system: BDF1 mice, P388 leukemia ip, median survival T/C
Assay: NCI In Vivo Anticancer Drug Screen. Data for tumor model P388 Leukemia (intraperitoneal) in B6D2F1 (BDF1) mice
Conditions: endpoint: median survival time, higher = longer survival
Method in brief: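 Vehicle-dosed animals serve as the reference; survival of compound-dosed, tumour-implanted mice is divided by it.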

[1] = dose: 100.0 mg/kg/injection, schedule: Q01DX009 (ip), vehicle: saline with Tween-80
[2] = dose: 200.0 mg/kg/injection, schedule: Q01DX009 (ip), vehicle: saline with Tween-80
[3] = dose: 12.5 mg/kg/injection, schedule: Q01DX009 (ip), vehicle: Klucel (hydroxypropylcellulose) (HPC)
[4] = dose: 25.0 mg/kg/injection, schedule: Q01DX009 (ip), vehicle: Klucel (hydroxypropylcellulose) (HPC)
[5] = dose: 50.0 mg/kg/injection, schedule: Q01DX009 (ip), vehicle: Klucel (hydroxypropylcellulose) (HPC)
[6] = dose: 50.0 mg/kg/injection, schedule: Q01DX009 (ip), vehicle: saline with Tween-80
[7] = dose: 25.0 mg/kg/injection, schedule: Q01DX009 (ip), vehicle: saline with Tween-80
[8] = dose: 100.0 mg/kg/injection, schedule: Q04DX003 (ip), vehicle: Klucel (hydroxypropylcellulose) (HPC)
[9] = dose: 200.0 mg/kg/injection, schedule: Q04DX003 (ip), vehicle: Klucel (hydroxypropylcellulose) (HPC)
[10] = dose: 400.0 mg/kg/injection, schedule: Q04DX003 (ip), vehicle: Klucel (hydroxypropylcellulose) (HPC)

In the case of `COc1ccc(CC[N+]2=Cc3cc(OC)c(OC)cc3CC2)cc1OC`, the T/C (dose: 6.25 mg/kg/injection, schedule: Q01DX009 (ip), vehicle: saline) is reported as 104 % of control and 111 % of control, the T/C (dose: 12.5 mg/kg/injection, schedule: Q01DX009 (ip), vehicle: saline) is reported as 100 % of control and the T/C (dose: 12.5 mg/kg/injection, schedule: Q04DX003 (ip), vehicle: saline) is reported as 109 % of control. For the same compound, the T/C (dose: 25.0 mg/kg/injection, schedule: Q01DX009 (ip), vehicle: saline) was 100 % of control and 104 % of control, the T/C (dose: 25.0 mg/kg/injection, schedule: Q04DX003 (ip), vehicle: saline) was 117 % of control and the T/C (dose: 50.0 mg/kg/injection, schedule: Q01DX009 (ip), vehicle: saline) was 95 % of control and 103 % of control and 107 % of control. The T/C (dose: 50.0 mg/kg/injection, schedule: Q04DX003 (ip), vehicle: saline) was 101 % of control and 103 % of control, the T/C (dose: 100.0 mg/kg/injection, schedule: Q01DX009 (ip), vehicle: saline) was 98 % of control and the T/C (dose: 150.0 mg/kg/injection, schedule: Q01DX009 (ip), vehicle: saline) was 95 % of control.
With `CCC(=O)Nc1cccc(Cl)c1` the T/C (dose: 100.0 mg/kg/injection, schedule: Q01DX001 (ip), vehicle: saline with Tween-80) was 109 % of control, the T/C (dose: 200.0 mg/kg/injection, schedule: Q01DX001 (ip), vehicle: saline with Tween-80) was 109 % of control and the T/C (dose: 400.0 mg/kg/injection, schedule: Q01DX001 (ip), vehicle: saline with Tween-80) was 90 % of control.
For `COc1cccc(/C=C/C(=O)c2ccc(Cl)cc2)c1OC`, the T/C (dose: 50.0 mg/kg/injection, schedule: Q01DX009 (ip), vehicle: other) was 95 % of control, the T/C (dose: 100.0 mg/kg/injection, schedule: Q01DX009 (ip), vehicle: other) was 104 % of control and the T/C [1] was 100 % of control. The T/C (dose: 200.0 mg/kg/injection, schedule: Q01DX009 (ip), vehicle: other) was 95 % of control and the T/C (dose: 400.0 mg/kg/injection, schedule: Q01DX009 (ip), vehicle: saline with Tween-80) was 100 % of control.
In the case of `COc1cccc2c1C(=O)c1c(O)c(COC3CC(N)C(O)C(C)O3)cc(O)c1C2=O` (configuration not stated), the T/C (dose: 12.5 mg/kg/injection, schedule: Q01DX009 (ip), vehicle: water) is reported as 100 % of control and the T/C (dose: 25.0 mg/kg/injection, schedule: Q01DX009 (ip), vehicle: water) is reported as 100 % of control.
For `CCCCCC(=O)c1ccc(OCCCN2CCN(C(=O)OCC)CC2)cc1`, the T/C [1] was 105 % of control and the T/C [2] was 104 % of control.
For `Cc1ccc(C[P+](c2ccccc2)(c2ccccc2)c2ccccc2)cc1`, the T/C (dose: 2.5 mg/kg/injection, schedule: Q01DX010 (ip), vehicle: saline) was 114 % of control, the T/C (dose: 5.0 mg/kg/injection, schedule: Q01DX010 (ip), vehicle: saline) was 114 % of control and the T/C (dose: 10.0 mg/kg/injection, schedule: Q01DX010 (ip), vehicle: saline) was 104 % of control.
For `Nc1cccc2c1C(=O)c1cccc(NC(=O)c3ccccc3)c1C2=O`, the T/C (dose: 6.25 mg/kg/injection, schedule: Q01DX009 (ip), vehicle: Klucel (hydroxypropylcellulose) (HPC)) was 104 % of control, the T/C [3] was 109 % of control and the T/C [4] was 116 % of control. For the same compound, the T/C [5] was 113 % of control, the T/C (dose: 100.0 mg/kg/injection, schedule: Q01DX009 (ip), vehicle: Klucel (hydroxypropylcellulose) (HPC)) was 115 % of control and the T/C (dose: 200.0 mg/kg/injection, schedule: Q01DX009 (ip), vehicle: Klucel (hydroxypropylcellulose) (HPC)) was 122 % of control. The T/C (dose: 400.0 mg/kg/injection, schedule: Q01DX009 (ip), vehicle: Klucel (hydroxypropylcellulose) (HPC)) was 151 % of control.
With `COC(=O)C1=C(C)NC(C)=C(C(=O)OC)C1C(C)Cl` (configuration not stated) the T/C [6] was 118 % of control and the T/C [1] was 109 % of control.
With `CCN1CSC(=S)N(CC)C1` the T/C [3] was 110 % of control, the T/C [4] was 110 % of control and the T/C [7] was 109 % of control. The T/C (dose: 25.0 mg/kg/injection, schedule: Q04DX003 (ip), vehicle: Klucel (hydroxypropylcellulose) (HPC)) was 95 % of control, the T/C (dose: 37.5 mg/kg/injection, schedule: Q01DX009 (ip), vehicle: saline with Tween-80) was 109 % of control and the T/C [5] was 110 % of control. The T/C [6] was 109 % of control, the T/C (dose: 50.0 mg/kg/injection, schedule: Q04DX003 (ip), vehicle: Klucel (hydroxypropylcellulose) (HPC)) was 87 % of control and the T/C (dose: 75.0 mg/kg/injection, schedule: Q01DX009 (ip), vehicle: saline with Tween-80) was 119 % of control. For the same compound, the T/C [1] was 122 % of control.
`CSCS(=O)C[C@H](CO)NC(=O)/C=C/c1c(C)[nH]c(=O)[nH]c1=O` (some centres not stated) was tested, and the T/C (dose: 0.15 mg/kg/injection, schedule: Q01DX010 (ip), vehicle: saline) was 109 % of control, the T/C (dose: 0.3 mg/kg/injection, schedule: Q01DX010 (ip), vehicle: saline) was 122 % of control and the T/C (dose: 0.6 mg/kg/injection, schedule: Q01DX010 (ip), vehicle: saline) was 172 % of control. The T/C (dose: 0.72 mg/kg/injection, schedule: Q04DX003 (ip), vehicle: saline) was 105 % of control, the T/C (dose: 0.78 mg/kg/injection, schedule: Q04DX002 (ip), vehicle: Klucel (hydroxypropylcellulose) (HPC)) was 100 % of control and 109 % of control and the T/C (dose: 0.86 mg/kg/injection, schedule: Q04DX003 (ip), vehicle: saline) was 108 % of control. The T/C (dose: 1.0 mg/kg/injection, schedule: Q04DX003 (ip), vehicle: saline) was 121 % of control, the T/C (dose: 1.2 mg/kg/injection, schedule: Q01DX010 (ip), vehicle: saline) was 100 % of control and the T/C (dose: 1.2 mg/kg/injection, schedule: Q04DX003 (ip), vehicle: saline) was 123 % of control. For the same compound, the T/C (dose: 1.56 mg/kg/injection, schedule: Q04DX002 (ip), vehicle: Klucel (hydroxypropylcellulose) (HPC)) was 109 % of control, the T/C (dose: 2.0 mg/kg/injection, schedule: Q04DX003 (ip), vehicle: saline) was 156 % of control and the T/C (dose: 2.4 mg/kg/injection, schedule: Q04DX003 (ip), vehicle: saline) was 97 % of control. For the same compound, the T/C (dose: 3.33 mg/kg/injection, schedule: Q04DX003 (ip), vehicle: saline) was 106 % of control, the T/C (dose: 6.25 mg/kg/injection, schedule: Q04DX002 (ip), vehicle: Klucel (hydroxypropylcellulose) (HPC)) was 118 % of control and the T/C (dose: 173.0 micrograms/kg/injection, schedule: Q01DX009 (ip), vehicle: saline) was 106 % of control. For the same compound, the T/C (dose: 288.0 micrograms/kg/injection, schedule: Q01DX009 (ip), vehicle: saline) was 110 % of control and the T/C (dose: 480.0 micrograms/kg/injection, schedule: Q01DX009 (ip), vehicle: saline) was 99 % of control.
For `CCOc1ccc([N+](=O)[O-])cc1CN(CC)CC`, the T/C (dose: 5.0 mg/kg/injection, schedule: Q01DX009 (ip), vehicle: saline) was 104 % of control, the T/C (dose: 10.0 mg/kg/injection, schedule: Q01DX009 (ip), vehicle: saline) was 95 % of control and 100 % of control and the T/C (dose: 20.0 mg/kg/injection, schedule: Q01DX009 (ip), vehicle: saline) was 113 % of control.
`O=C(NCCBr)Nc1cccc2c1Cc1ccccc1-2` was tested, and the T/C [8] was 100 % of control, the T/C [9] was 100 % of control and the T/C [10] was 95 % of control.
With `CC1(C)CC(=O)C(C(c2cccc(O)c2O)C2C(=O)CC(C)(C)CC2=O)C(=O)C1` the T/C [6] was 123 % of control, the T/C [1] was 100 % of control and the T/C [2] was 91 % of control.
For `CCOC(=O)c1c(NC(=O)CCl)ssc1=S`, the T/C (dose: 0.78 mg/kg/injection, schedule: Q01DX009 (ip), vehicle: saline with Tween-80) was 116 % of control, the T/C (dose: 1.56 mg/kg/injection, schedule: Q01DX009 (ip), vehicle: saline with Tween-80) was 116 % of control and the T/C (dose: 3.12 mg/kg/injection, schedule: Q01DX009 (ip), vehicle: saline with Tween-80) was 116 % of control. The T/C (dose: 6.25 mg/kg/injection, schedule: Q01DX009 (ip), vehicle: saline with Tween-80) was 116 % of control, the T/C (dose: 12.5 mg/kg/injection, schedule: Q01DX009 (ip), vehicle: saline with Tween-80) was 114 % of control and the T/C [7] was 109 % of control. The T/C [6] was 111 % of control, the T/C (dose: 50.0 mg/kg/injection, schedule: Q04DX003 (ip), vehicle: saline with Tween-80) was 102 % of control and the T/C (dose: 200.0 mg/kg/injection, schedule: Q04DX003 (ip), vehicle: saline with Tween-80) was 100 % of control. For the same compound, the T/C (dose: 400.0 mg/kg/injection, schedule: Q04DX003 (ip), vehicle: saline with Tween-80) was 116 % of control.
`CCCCCCCCCCC(CCCCCCCCCC)CCCCCCCCC(CCCCCCCCCC)CCCCCCCCCC` was tested, and the T/C [8] was 108 % of control, the T/C [9] was 93 % of control and the T/C [10] was 97 % of control.
